Columns and labels:
[1] = GI S9 stability (Ex. Z), rat intestinal S9; assay type: in vitro ADME; conditions: pooled intestinal S9 fractions; rat intestinal S9, 1.0 mg/mL protein, 2 μM substrate, pH 7.4; read-out: GIS9 Rat T½ (per Ex. Z)
Description: (§1) Example Z: GI S9 stability data:
(§2) Stock solutions of test compounds in dimethyl sulfoxide (DMSO) having a final concentration of 10 mM were prepared and used in all experiments. Sekisui XenoTech (Kansas City, KS) provided pooled intestinal S9 fractions. All other chemicals were purchased from Sigma-Aldrich (St. Louis, MO) or VWR (West Chester, PA). Internal Standard/Quench (IS/Q) used to stop reactions was 100 nM labetalol in (by volume) methanol (10%) and acetonitrile (90%).
(§3) Stability in Intestinal S9 Fractions: Duplicate aliquots of test compound or positive control substrate were added to S9 stock diluted with phosphate buffered saline (137 mM NaCl, 2.7 mM KCl, 10 mM phosphate buffer), pH 7.4, to obtain a protein concentration of 1.0 mg/mL. The metabolic reactions were initiated by the addition of the substrates to the S9 reaction mixture to a final concentration of 2 μM. At 0, 10, 20, 30, 60 and 120 min, 25 μL aliquots of the reaction mixture were transferred to plates containing 225 μl of IS/Q solution. After quenching, the plates were centrifuged at 3000×g for 30 minutes. 150 μL aliquots of each supernatant were dried down then reconstituted with 300 μL water. Aliquots (10 μL) of the prepared samples were analyzed on a Thermo Q-Exactive mass spectrometer as described below.
(§4) Liquid Chromatography—Mass Spectrometry: Quantification of test compounds and control substrate was performed by analyte/internal standard peak area ratio (PAR) values measured on a Thermo Q-Exactive mass spectrometer coupled to a Dionex UltiMate 3000 HPLC with a Leap Technologies HTC PAL autosampler. The column used for analysis was a Waters Acquity BEH C18 (1.7 μm particle size, 2.1×50 mm). Mobile phase A consisted of 0.1% (v/v) formic acid in water. Mobile phase B consisted of 0.1% (v/v) formic acid in acetonitrile. Elution of analytes was achieved by a series of linear gradients varying the proportions of A and B. The mass spectrometer was calibrated on a weekly basis and mass tolerance of 5 ppm was used.
(§5) Metabolic stabilities in S9 fractions were determined by measuring the rates of disappearance of test compound and positive control substrate.
(§6) Data (% of substrate remaining) were plotted on a semi-log scale and fitted using an exponential decline model:
(§7) Where Ct—% of substrate remaining at time=t; C0—% of substrate remaining at time=0; t—time; T½—half-life The Half-life (T½) is determined by the following equation: […]
(§8) Assuming a first-order reaction, the slope (k) is extrapolated from the aforementioned plotted data.

[2] = GI S9 stability (Ex. Z), human intestinal S9; assay type: in vitro ADME; conditions: pooled intestinal S9 fractions; human intestinal S9, 1.0 mg/mL protein, 2 μM substrate, pH 7.4; read-out: GIS9 Human T½ (per Ex. Z)
Description: as §1, §2, §3, §4, §5, §6, §7, §8

[3] = tested on: Respiratory syncytial virus recombinant with luciferase (RSV-Luc5) in NHBE cells; test: NHBE RSV-Luc5 384-well Assay (RSV FLUC NHBE 384 V2, Ex. W); assay type: cell-based; conditions: human respiratory syncytial virus, 72 h, read-out: EC50 RSV FLUC NHBE 384 V2 (per Ex. W)
In short: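 NHBE cells (passage 2) seeded at 5,000 cells/well onto pre-spotted compounds, 10-point 1:3 dilutions, then infected with RSV-Luc5 at MOI 1. After 3 days at 37 °C, luciferase luminescence was read with One-Glo. Data normalized to remdesivir (0%) and DMSO (100% replication); EC50 from non-linear regression.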

## N#C[C@]1(COC(=O)c2ccccc2)O[C@@H](c2ccc3c(N)ncnn23)[C@H](O)[C@@H]1O [Compound 2, ((2R,3S,4R,5S)-5-(4-aminopyrrolo[2,1-f][1,2,4]triazin-7-yl)-2-cyano-3,4-dihydroxytetrahydrofuran-2-yl)methyl benzoate]
[1]
  half-life at 2 μM: 8 min
[2]
  half-life at 2 μM: 27 min
[3]
  EC50: 9.31 µM

## CC(=O)OC[C@@]1(C#N)O[C@@H](c2ccc3c(N)ncnn23)[C@H](OC(C)=O)[C@@H]1OC(C)=O [Compound 28, (2R,3S,4S,5S)-2-(acetoxymethyl)-5-(4-aminopyrrolo[2,1-f][1,2,4]triazin-7-yl)-2-cyanotetrahydrofuran-3,4-diyl diacetate]
[1]
  half-life at 2 μM: 5 min
[2]
  half-life at 2 μM: 5 min
[3]
  EC50: 24.6 µM

## CC1(C(=O)OC[C@@]2(C#N)O[C@@H](c3ccc4c(N)ncnn34)[C@H](O)[C@@H]2O)CC1 [Compound 15, ((2R,3S,4R,5S)-5-(4-aminopyrrolo[2,1-f][1,2,4]triazin-7-yl)-2-cyano-3,4-dihydroxytetrahydrofuran-2-yl)methyl 1-methylcyclopropane-1-carboxylate]
[1]
  half-life at 2 μM: 23 min
[2]
  half-life at 2 μM: 104 min
[3]
  EC50: 8.77 µM

## CC(C)(C)CC(=O)OC[C@@]1(C#N)O[C@@H](c2ccc3c(N)ncnn23)[C@H](O)[C@@H]1O [Compound 13, ((2R,3S,4R,5S)-5-(4-aminopyrrolo[2,1-f][1,2,4]triazin-7-yl)-2-cyano-3,4-dihydroxytetrahydrofuran-2-yl)methyl 3,3-dimethylbutanoate]
[1]
  half-life at 2 μM: 185 min
[2]
  half-life at 2 μM: 789 min
[3]
  EC50: 8.59 µM

## CC(=O)OC[C@@]1(C#N)O[C@@H](c2ccc3c(N)ncnn23)[C@H](O)[C@@H]1O [Compound 4, ((2R,3S,4R,5S)-5-(4-aminopyrrolo[2,1-f][1,2,4]triazin-7-yl)-2-cyano-3,4-dihydroxytetrahydrofuran-2-yl)methyl acetate]
[1]
  half-life at 2 μM: 9 min
[2]
  half-life at 2 μM: 23 min
[3]
  EC50: 10.7 µM

## N#C[C@]1(COC(=O)C2CCC2)O[C@@H](c2ccc3c(N)ncnn23)[C@H](O)[C@@H]1O [Compound 8, ((2R,3S,4R,5S)-5-(4-aminopyrrolo[2,1-f][1,2,4]triazin-7-yl)-2-cyano-3,4-dihydroxytetrahydrofuran-2-yl)methyl cyclobutanecarboxylate]
[1]
  half-life at 2 μM: 2 min
[2]
  half-life at 2 μM: 4 min
[3]
  EC50: 10.1 µM

## CC1(C)CC(C(=O)OC[C@@]2(C#N)O[C@@H](c3ccc4c(N)ncnn34)[C@H](O)[C@@H]2O)C1 [Compound 17, ((2R,3S,4R,5S)-5-(4-aminopyrrolo[2,1-f][1,2,4]triazin-7-yl)-2-cyano-3,4-dihydroxytetrahydrofuran-2-yl)methyl 3,3-dimethylcyclobutane-1-carboxylate]
[1]
  half-life at 2 μM: 3 min
[2]
  half-life at 2 μM: 13 min
[3]
  EC50: 8.7 µM

## CC(C)C(=O)OC[C@@]1(C#N)O[C@@H](c2ccc3c(N)ncnn23)[C@H](OC(=O)C(C)C)[C@@H]1OC(=O)C(C)C [Compound 20, (2R,3S,4S,5S)-5-(4-aminopyrrolo[2,1-f][1,2,4]triazin-7-yl)-2-cyano-2-((isobutyryloxy)methyl)tetrahydrofuran-3,4-diyl bis(2-methylpropanoate)]
[1]
  half-life at 2 μM: 2 min
[2]
  half-life at 2 μM: 3 min
[3]
  EC50: 10.4 µM

## Cc1ccc(C(=O)OC[C@@]2(C#N)O[C@@H](c3ccc4c(N)ncnn34)[C@H](O)[C@@H]2O)cc1 [Compound 14, ((2R,3S,4R,5S)-5-(4-aminopyrrolo[2,1-f][1,2,4]triazin-7-yl)-2-cyano-3,4-dihydroxytetrahydrofuran-2-yl)methyl 4-methylbenzoate]
[1]
  half-life at 2 μM: 6 min
[2]
  half-life at 2 μM: 25 min
[3]
  EC50: 9.6 µM

## CC(C)C(=O)OC[C@@]1(C#N)O[C@@H](c2ccc3c(N)ncnn23)[C@H](O)[C@@H]1O [Compound 1, ((2R,3S,4R,5S)-5-(4-aminopyrrolo[2,1-f][1,2,4]triazin-7-yl)-2-cyano-3,4-dihydroxytetrahydrofuran-2-yl)methyl isobutyrate]
[1]
  half-life at 2 μM: 11 min
[2]
  half-life at 2 μM: 38 min
[3]
  EC50: 14.4 µM

## CCC(C)(C)C(=O)OC[C@@]1(C#N)O[C@@H](c2ccc3c(N)ncnn23)[C@H](O)[C@@H]1O [Compound 35, ((2R,3S,4R,5S)-5-(4-aminopyrrolo[2,1-f][1,2,4]triazin-7-yl)-2-cyano-3,4-dihydroxytetrahydrofuran-2-yl)methyl 2,2-dimethylbutanoate]
[1]
  half-life at 2 μM: 124 min
[2]
  half-life at 2 μM: 273 min
[3]
  EC50: 9.6 µM

## N#C[C@]1(COC(=O)[C@H]2CCC(=O)O2)O[C@@H](c2ccc3c(N)ncnn23)[C@H](O)[C@@H]1O [Compound 25, ((2R,3S,4R,5S)-5-(4-aminopyrrolo[2,1-f][1,2,4]triazin-7-yl)-2-cyano-3,4-dihydroxytetrahydrofuran-2-yl)methyl (R)-5-oxotetrahydrofuran-2-carboxylate]
[1]
  half-life at 2 μM: 5 min
[2]
  half-life at 2 μM: 3 min
[3]
  EC50: 11.7 µM

— patent US20240199676A1, “ANTIVIRAL COMPOUNDS AND METHODS OF MAKING AND USING THE SAME” (Gilead Sciences, Inc., priority 2022, published 2024)
